From paper PMC4599284, “Redox effects and cytotoxic profiles of MJ25 and auranofin towards malignant melanoma cells” (Oncotarget, 2015)

Columns and labels:
[1] = target: T1, thioredoxin reductase 1 (TrxR1) (Rattus norvegicus, UniProt O89049); assay: NADPH-dependent DTNB reduction assay with purified enzyme; irreversibility tested by desalting; assay type: biochemical
T1 construct: gene Txnrd1; recombinant selenocysteine-containing rat TrxR1
T1 sequence (O89049 1-499): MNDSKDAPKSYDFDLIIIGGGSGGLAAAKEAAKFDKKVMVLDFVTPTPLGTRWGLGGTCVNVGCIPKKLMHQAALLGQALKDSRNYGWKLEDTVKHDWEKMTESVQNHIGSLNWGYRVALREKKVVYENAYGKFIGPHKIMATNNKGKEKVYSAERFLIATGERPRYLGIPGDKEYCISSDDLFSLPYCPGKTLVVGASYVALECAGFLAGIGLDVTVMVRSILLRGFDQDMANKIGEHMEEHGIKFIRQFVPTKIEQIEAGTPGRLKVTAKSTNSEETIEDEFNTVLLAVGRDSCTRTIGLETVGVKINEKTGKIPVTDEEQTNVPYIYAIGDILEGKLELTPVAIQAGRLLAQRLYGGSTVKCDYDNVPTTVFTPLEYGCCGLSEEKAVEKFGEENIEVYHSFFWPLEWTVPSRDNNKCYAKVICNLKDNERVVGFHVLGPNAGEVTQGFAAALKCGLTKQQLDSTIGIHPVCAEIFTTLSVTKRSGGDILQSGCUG

[2] = target: T1, thioredoxin reductase 1 (TrxR1); assay: NADPH-dependent juglone reduction by purified enzyme, NADPH consumption at […] nm; assay type: biochemical

Structure (SMILES) | NADPH-dependent DTNB reduction assay with purified enzyme; irreversibility teste [1] | NADPH-dependent juglone reduction by purified enzyme, NADPH consumption at 340 n [2]
O=S(=O)(CCSc1nc2ccccc2o1)c1nc2ccccc2s1 [MJ25, 2-{[2-(1,3-benzothiazol-2-ylsulfonyl)ethyl]thio}-1,3-benzoxazole] | we also confirmed that repurchased MJ25 inhibited recombinant TrxR1 (Figure 4a) | –
CC[P](CC)(CC)=[Au][S][C@@H]1O[C@H](COC(C)=O)[C@@H](OC(C)=O)[C@H](OC(C)=O)[C@H]1OC(C)=O [auranofin] | Both MJ25 and auranofin were found to inhibit TrxR1 irreversibly. | –
O=C1C=CC(=O)c2c(O)cccc21 [juglone, 5-hydroxy-1,4-naphthoquinone] | – | using juglone as a Sec-independent substrate and the DTNB assay as a Sec-dependent activity control
